Laboratory results as given in patent publication US20040110802A1, “Antibacterial benzoic acid derivatives” (priority 2002, published 2004).
Converted amounts (≈) assume the structure as drawn.

Each compound was assayed on SAUR 9218 (assay: MIC Test Method, standard agar dilution). Settings: agar dilution, Mueller Hinton agar, incubated overnight at 35° C.; lowest concentration that inhibits visible growth; read-out: SAUR 9218 MIC.
Format: cell-based
Experimental: The in vitro MiCs of test compounds were determined by a standard agar dilution method. A stock drug solution of each analog was prepared in the preferred solvent, usually DMSO:H2O (1:3). Serial 2-fold dilutions of each sample are made using 1.0 ml aliquots of sterile distil]ed water. To each 1.0 ml aliquot of drug was added 9 ml of molten Mueller Hinton agar medium. The drug-supplemented agar was mixed, poured into 15×100 mm petri dishes, and allowed to solidify and dry prior to inoculation.
Vials of each of the test organisms are maintained frozen in the vapor phase of a liquid nitrogen freezer. Test cultures are grown overnight at 35° C. on the medium appropriate for the organism. Colonies are harvested with a sterile swab, and cell suspensions are prepared in Trypticase Soy broth (TSB) to equal the turbidity of a 0.5 McFamland standard. A 1:20 dilution of each suspension was made in TSB. The plates containing the drug supplemented agar are inoculated with a 0.001 ml drop of the cell suspension using a Steers replicator, yielding approximately 10^4 to 10^5 cells per spot. The plates are incubated overnight at 35° C.
Following incubation the Minimum Inhibitory Concentration (MIC μg/ml), the lowest concentration of drug that inhibits visible growth of the organism, was read and recorded.

First: Cn1c(C(=O)Nc2ccc(C#N)cc2C(=O)O)cc2cccc(NC(=O)NCC3CCCO3)c21 (stereo not shown)
Second: Cn1c(C(=O)Nc2ccc(C#N)cc2C(=O)O)cc2cccc(OCC3CC3)c21
The MIC of the first is 8-fold higher: 1 µg/mL (≈ 2.17 µM) for the first, 0.125 µg/mL (≈ 0.321 µM) for the second.

Compared with `N#Cc1ccc(NC(=O)c2noc3cc(O)ccc23)c(C(=O)O)c1`, `CNS(=O)(=O)c1ccc2onc(C(=O)Nc3ccc(C#N)cc3C(=O)O)c2c1` is 17-fold lower in MIC: 1 µg/mL (≈ 3.09 µM) for the first, 0.06 µg/mL (≈ 0.15 µM) for the second.

Compared with `CN(C)S(=O)(=O)Nc1ccc2onc(C(=O)Nc3ccc(C#N)cc3C(=O)O)c2c1`, `CCCN(CCC)S(=O)(=O)c1ccc2onc(C(=O)Nc3ccc(C#N)cc3C(=O)O)c2c1` is 2-fold lower in MIC: 0.5 µg/mL (≈ 1.16 µM) for the first, 0.25 µg/mL (≈ 0.531 µM) for the second.

Going from `Cc1ccccc1-c1ccc2cc(C(=O)Nc3ccc(C#N)cc3C(=O)O)n(C)c2c1` to `CCC(C)Oc1ccc2cc(C(=O)Nc3ccc(C#N)cc3C(=O)O)n(C)c2c1` (stereo not shown), the MIC rises from 0.5 µg/mL (≈ 1.22 µM) to 16 µg/mL (≈ 40.9 µM) (32-fold).

First: N#Cc1ccc(NC(=O)c2nsc(-c3ccccc3)c2Cl)c(C(=O)O)c1
Second: N#Cc1ccc(NC(=O)c2nsc3ccccc23)c(C(=O)O)c1
The MIC of the first is 2-fold lower: 0.5 µg/mL (≈ 1.3 µM) for the first, 1 µg/mL (≈ 3.09 µM) for the second.

Compared with `CC(C)OCC(O)COc1cccc2cc(C(=O)Nc3ccc(C#N)cc3C(=O)O)n(C)c12` (stereo not shown), `CC(C)Oc1cccc2cc(C(=O)Nc3ccc(C#N)cc3C(=O)O)n(C)c12` is 2-fold lower in MIC: 0.25 µg/mL (≈ 0.554 µM) for the first, 0.125 µg/mL (≈ 0.331 µM) for the second.

Going from `N#Cc1ccc(NC(=O)c2cc(-c3ccc(C(F)(F)F)cc3)on2)c(C(=O)O)c1` to `COc1ccc(-c2cc(C(=O)Nc3ccc(C#N)cc3C(=O)O)no2)cc1`, the MIC falls from 1 µg/mL (≈ 2.49 µM) to 0.5 µg/mL (≈ 1.38 µM) (2-fold).

Going from `Cc1sc(C(=O)Nc2ccc(C#N)cc2C(=O)O)cc1S(=O)(=O)N1CCN(c2ncccn2)CC1` to `N#Cc1ccc(NC(=O)c2cc3cccnc3s2)c(C(=O)O)c1`, the MIC falls from 64 µg/mL (≈ 125 µM) to 4 µg/mL (≈ 12.4 µM) (16-fold).

Going from `O=C(O)c1cc(Br)ccc1NC(=O)c1cc(OCc2ccccc2)cc[n+]1[O-]` to `O=C(O)c1cc(Br)ccc1NC(=O)c1noc2ccc(S(=O)(=O)NCc3ccccc3)cc12`, the MIC falls from 32 µg/mL (≈ 72.2 µM) to 0.06 µg/mL (≈ 0.113 µM) (530-fold).

Going from `Cc1c(S(=O)(=O)NC2Cc3ccccc3C2)csc1C(=O)Nc1ccc(Br)cc1C(=O)O` to `Cc1c(C(=O)Nc2ccc(Br)cc2C(=O)O)noc1-c1ccccc1`, the MIC falls from 16 µg/mL (≈ 29.9 µM) to 0.5 µg/mL (≈ 1.25 µM) (32-fold).

Going from `Cn1c(C(=O)Nc2ccc(C#N)cc2C(=O)O)cc2ccc(Br)c(N)c21` to `COc1ccc2oc(C(=O)Nc3ccc(C#N)cc3C(=O)O)cc2c1`, the MIC rises from 0.5 µg/mL (≈ 1.21 µM) to 2 µg/mL (≈ 5.95 µM) (4-fold).

`COc1cccc(-c2cnc(C(=O)Nc3ccc(C#N)cc3C(=O)O)o2)c1` and `N#Cc1ccc(NC(=O)c2ncc(-c3ccccc3)o2)c(C(=O)O)c1` are the same in MIC: 0.5 µg/mL (≈ 1.38 µM) for the first, 0.5 µg/mL (≈ 1.5 µM) for the second.

Going from `Cc1ccsc1C(=O)Nc1ccc(C#N)cc1C(=O)O` to `N#Cc1ccc(NC(=O)c2ccsc2)c(C(=O)O)c1`, the MIC rises from 1 µg/mL (≈ 3.49 µM) to greater than 128 µg/mL.

First: Cl.Cn1c(C(=O)Nc2ccc(C#N)cc2C(=O)O)cc2cccc(OCC(O)CNc3ccccc3)c21 (stereo not shown)
Second: Cn1c(C(=O)Nc2ccc(C#N)cc2C(=O)O)cc2c(Br)cc(Br)c(NC(=O)Cc3ccccc3)c21
The MIC of the first is 16-fold lower: 0.125 µg/mL for the first, 2 µg/mL (≈ 3.28 µM) for the second.

Compared with `N#Cc1ccc(NC(=O)c2cc(-c3ccccc3OCC3COc4ccccc4O3)on2)c(C(=O)O)c1` (stereo not shown), `C=CCOc1ccccc1-c1cc(C(=O)Nc2ccc(C#N)cc2C(=O)O)no1` is 2-fold lower in MIC: 0.25 µg/mL (≈ 0.503 µM) for the first, 0.125 µg/mL (≈ 0.321 µM) for the second.

Compared with `CC(C)(C)c1cc(C(=O)Nc2ccc(C#N)cc2C(=O)O)no1`, `CCCC(C)Oc1ccccc1-c1cc(C(=O)Nc2ccc(C#N)cc2C(=O)O)no1` (stereo not shown) is 8-fold lower in MIC: 1 µg/mL (≈ 3.19 µM) for the first, 0.125 µg/mL (≈ 0.298 µM) for the second.

First: N#Cc1ccc(NC(=O)c2cc3cccc(NC(=O)c4ccc(-c5ccccc5)cc4)c3[nH]2)c(C(=O)O)c1
Second: N#Cc1ccc(NC(=O)c2cc3cccc(NC(=O)Cc4ccccc4C(F)(F)F)c3[nH]2)c(C(=O)O)c1
The MIC of the first is 2-fold lower: 0.5 µg/mL (≈ 0.999 µM) for the first, 1 µg/mL (≈ 1.97 µM) for the second.

Going from `CN(CC(O)C(O)C(O)C(O)CO)C(=O)Nc1cccc2cc(C(=O)Nc3ccc(C#N)cc3C(=O)O)n(C)c12` (stereo not shown) to `Cn1c(C(=O)Nc2ccc(C#N)cc2C(=O)O)cc2cccc(NC(=O)c3ccc(N=[N+]=[N-])c(I)c3)c21`, the MIC rises from 32 µg/mL (≈ 57.6 µM) to greater than 128 µg/mL.

First: CCCCCCSc1ccc(C(=O)Nc2ccc(C#N)cc2C(=O)O)nn1
Second: CCCCCSc1ccc(C(=O)Nc2ccc(C#N)cc2C(=O)O)nn1
The MIC of the first is 2-fold higher: 0.03 µg/mL (≈ 0.078 µM) for the first, 0.015 µg/mL (≈ 0.0405 µM) for the second.

Going from `O=C(Nc1ccc(Br)cc1C(=O)O)c1ccc(-c2cccc(C(F)(F)F)c2)o1` to `N#Cc1ccc(NC(=O)c2ncc(-c3ccc(F)cc3)o2)c(C(=O)O)c1`, the MIC falls from 16 µg/mL (≈ 35.2 µM) to 1 µg/mL (≈ 2.85 µM) (16-fold).

Compared with `CC(C)(C)N1C(=O)c2ccc(C(=O)Nc3ccc(Br)cc3C(=O)O)cc2C1=O`, `C#Cc1cncc(C(=O)Nc2ccc(C#N)cc2C(=O)O)c1` is 4-fold higher in MIC: 4 µg/mL (≈ 8.98 µM) for the first, 16 µg/mL (≈ 54.9 µM) for the second.

Going from `CCCCCCSc1ccc(C(=O)Nc2ccc(C#N)cc2C(=O)O)cn1` to `CCCCN(CC#N)S(=O)(=O)c1cc(C(=O)Nc2ccc(C#N)cc2C(=O)O)sc1C`, the MIC rises from 0.125 µg/mL (≈ 0.326 µM) to 64 µg/mL (≈ 139 µM) (510-fold).

Compared with `N#Cc1ccc(NC(=O)c2cc3cccc(NC(=O)CCC4CCCC4)c3[nH]2)c(C(=O)O)c1`, `CC(=O)Nc1cccc(-c2ccc3onc(C(=O)Nc4ccc(C#N)cc4C(=O)O)c3c2)c1` is 2-fold higher in MIC: 0.25 µg/mL (≈ 0.562 µM) for the first, 0.5 µg/mL (≈ 1.14 µM) for the second.
